Experimental data published in the supplement of paper PMC11061612.

How the values were obtained:
Assay in all cases: combination Emax (second highest fraction inhibited in the dose matrix, 72 h); higher = more inhibition; extreme values may be limits of the assay
[1] = system: MDA-MB-436 (Breast Carcinoma)
In short: (§1)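 Bliss excess equals the observed combination effect minus the expected value EA + EB − EA·EB, where EA and EB are the effects of each agent alone. Combination Emax is the second-highest inhibition within the matrix. Inhibition was scaled from CellTiter-Glo 2.0 luminescence, with 0 set by vehicle wells and 1 by blank wells, after 72 hours of two-drug dosing of cells plated in 1536-well plates.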

[2] = system: NCI-H716 (Colorectal Carcinoma)
In short: as §1

[3] = system: HCC1428 (Breast Carcinoma)
In short: as §1

[4] = system: Jurkat (T-Lymphoblastic Leukemia)
In short: as §1

[5] = system: CGTH-W-1 (Thyroid Gland Carcinoma)
In short: as §1

[6] = system: COLO-792 (Melanoma)
In short: as §1

[7] = system: KYSE-140 (Esophageal Squamous Cell Carcinoma)
In short: as §1

[8] = system: NCI-H2228 (Lung Adenocarcinoma)
In short: as §1

[9] = system: EW-7 (Ewing's Sarcoma)
In short: as §1

[10] = system: PEO1 (Ovarian Carcinoma)
In short: as §1

[11] = system: EB2 (Burkitt's Lymphoma)
In short: as §1

[12] = system: NB13 (Neuroblastoma)
In short: as §1

[13] = system: GA-10 (Burkitt's Lymphoma)
In short: as §1

[14] = system: UACC-812 (Breast Carcinoma)
In short: as §1

[15] = system: OACp4C (Esophageal Adenocarcinoma)
In short: as §1

[16] = system: KP-N-YN (Neuroblastoma)
In short: as §1

[17] = system: JHU-022 (Oral Cavity Carcinoma)
In short: as §1

[18] = system: WM1552C (Melanoma)
In short: as §1

[19] = system: JIMT-1 (Breast Carcinoma)
In short: as §1

[20] = system: A101D (Melanoma)
In short: as §1

Row | Compound | combination Emax [1] | combination Emax [2] | combination Emax [3] | combination Emax [4] | combination Emax [5] | combination Emax [6] | combination Emax [7] | combination Emax [8] | combination Emax [9] | combination Emax [10] | combination Emax [11] | combination Emax [12] | combination Emax [13] | combination Emax [14] | combination Emax [15] | combination Emax [16] | combination Emax [17] | combination Emax [18] | combination Emax [19] | combination Emax [20]
1 | CN(C)CCCOc1ccc(-c2ccc3ncc4c(c3c2)n(C2CCOCC2)c(=O)n4C)cn1 [AZD0156] + C=CCn1c(=O)c2cnc(Nc3ccc(N4CCN(C)CC4)cc3)nc2n1-c1cccc(C(C)(C)O)n1 [AZD1775] (first compound max 1 µM, partner max 1 µM) | 0.195 | 0.482 | 0.125 | 0.879 | 0.188 | 0.538 | 0.844 | 0.5 | 0.884 | 0.341 | 0.841 | 0.906 | 0.988 | 0.156 | 0.83 | 0.95 | 0.36 | 0.476 | 0.488 | 0.495
2 | CN(C)CCCOc1ccc(-c2ccc3ncc4c(c3c2)n(C2CCOCC2)c(=O)n4C)cn1 [AZD0156] + CCN(CCO)CCCOc1ccc2c(Nc3cc(CC(=O)Nc4cccc(F)c4)[nH]n3)ncnc2c1 [AZD2811] (first compound max 1 µM, 7x7, partner max 1 µM) | 0.0531 | 0.45 | 0.161 | 0.309 | 0.196 | 0.358 | 0.288 | 0.384 | 0.403 | 0.157 | 0.416 | 0.479 | 0.808 | 0.148 | 0.598 | 0.486 | 0.193 | 0.242 | 0.0631 | 0.203
3 | CN(C)CCCOc1ccc(-c2ccc3ncc4c(c3c2)n(C2CCOCC2)c(=O)n4C)cn1 [AZD0156] + C[C@@H]1COCCN1C2=NC(=NC(=C2)C3(CC3)[S@](=N)(=O)C)C4=C5C=CNC5=NC=C4 [AZD6738] (first compound max 1 µM, 7x7, partner max 10 µM) | 0.23 | 0.667 | 0.132 | 0.898 | 0.35 | 0.273 | 0.934 | 0.517 | 0.935 | 0.533 | 0.774 | 0.906 | 1 | 0.295 | 0.724 | 0.973 | 0.525 | 0.783 | 0.799 | 0.703
4 | C=CCn1c(=O)c2cnc(Nc3ccc(N4CCN(C)CC4)cc3)nc2n1-c1cccc(C(C)(C)O)n1 [AZD1775] + O=C(c1cc(Cc2n[nH]c(=O)c3ccccc23)ccc1F)N1CCN(C(=O)C2CC2)CC1 [Olaparib] (first compound max 1 µM, partner max 10 µM) | 0.271 | 0.378 | 0.375 | 0.842 | 0.193 | 0.284 | 0.733 | 0.592 | 0.82 | 0.384 | 0.848 | 0.935 | 0.981 | 0.14 | 0.806 | 0.723 | 0.432 | 0.486 | 0.558 | 0.604
5 | CCN(CCO)CCCOc1ccc2c(Nc3cc(CC(=O)Nc4cccc(F)c4)[nH]n3)ncnc2c1 [AZD2811] + C=CCn1c(=O)c2cnc(Nc3ccc(N4CCN(C)CC4)cc3)nc2n1-c1cccc(C(C)(C)O)n1 [AZD1775] (first compound max 1 µM, partner max 1 µM) | 0.235 | 0.562 | 0.158 | 0.798 | 0.217 | 0.396 | 0.826 | 0.598 | 0.817 | 0.278 | 0.77 | 0.924 | 0.992 | 0.116 | 0.809 | 0.913 | 0.388 | 0.424 | 0.488 | 0.427
6 | CCN(CCO)CCCOc1ccc2c(Nc3cc(CC(=O)Nc4cccc(F)c4)[nH]n3)ncnc2c1 [AZD2811] + C[C@@H]1COCCN1C2=NC(=NC(=C2)C3(CC3)[S@](=N)(=O)C)C4=C5C=CNC5=NC=C4 [AZD6738] (first compound max 1 µM, 7x7, partner max 10 µM) | 0.311 | 0.515 | 0.172 | 0.865 | 0.35 | 0.418 | 0.92 | 0.517 | 0.902 | 0.553 | 0.746 | 0.941 | 0.978 | 0.323 | 0.733 | 0.957 | 0.535 | 0.642 | 0.677 | 0.682
7 | CCN(CCO)CCCOc1ccc2c(Nc3cc(CC(=O)Nc4cccc(F)c4)[nH]n3)ncnc2c1 [AZD2811] + O=C(c1cc(Cc2n[nH]c(=O)c3ccccc23)ccc1F)N1CCN(C(=O)C2CC2)CC1 [Olaparib] (first compound max 1 µM, 7x7, partner max 10 µM) | 0.144 | 0.367 | 0.218 | 0.384 | 0.291 | 0.374 | 0.355 | 0.268 | 0.361 | 0.29 | 0.373 | 0.626 | 0.595 | 0.181 | 0.408 | 0.541 | 0.271 | 0.377 | 0.0806 | 0.261
8 | COc1nnc2ccc(N3CCC(c4ccc(OCCN5CCN(C)C(=O)[C@H]5C)cc4)CC3)nn12 [AZD5153] + C=CCn1c(=O)c2cnc(Nc3ccc(N4CCN(C)CC4)cc3)nc2n1-c1cccc(C(C)(C)O)n1 [AZD1775] (first compound max 1 µM, partner max 1 µM) | 0.227 | 0.524 | 0.718 | 0.983 | 0.275 | 0.856 | 0.832 | 0.465 | 0.872 | 0.691 | 0.796 | 0.813 | 0.996 | 0.376 | 0.882 | 0.924 | 0.417 | 0.439 | 0.622 | 0.737
9 | COc1nnc2ccc(N3CCC(c4ccc(OCCN5CCN(C)C(=O)[C@H]5C)cc4)CC3)nn12 [AZD5153] + CC1(C)CCC(CN2CCN(c3ccc(C(=O)NS(=O)(=O)c4ccc(NCC5CCOCC5)c([N+](=O)[O-])c4)c(Oc4cnc5[nH]ccc5c4)c3)CC2)=C(c2ccc(Cl)cc2)C1 [Venetoclax] (first compound max 1 µM, 7x7, partner max 1 µM) | 0.227 | 0.615 | 0.621 | 0.679 | 0.212 | 0.583 | 0.603 | 0.288 | 0.334 | 0.368 | 0.559 | 0.474 | 0.693 | 0.261 | 0.545 | 0.673 | 0.417 | 0.397 | 0.311 | 0.67
10 | CS(=O)(=O)CCNCc1ccc(-c2ccc3ncnc(Nc4ccc(OCc5cccc(F)c5)c(Cl)c4)c3c2)o1 [Lapatinib] + C[C@@H](Oc1cc(-c2cnn(C3CCNCC3)c2)cnc1N)c1c(Cl)ccc(F)c1Cl [Crizotinib] (first compound max 10 µM, 7x7, partner max 10 µM) | 0.248 | 0.837 | 0.471 | 0.947 | 0.853 | 0.981 | 0.881 | 0.769 | 0.956 | 0.718 | 0.768 | 0.949 | 0.98 |  | 1 | 0.755 | 0.943 | 0.921 | 0.851 | 0.971
11 | CC(=O)c1c(C)c2cnc(Nc3ccc(N4CCNCC4)cn3)nc2n(C2CCCC2)c1=O [Palbociclib] + CC1(C)CCC(CN2CCN(c3ccc(C(=O)NS(=O)(=O)c4ccc(NCC5CCOCC5)c([N+](=O)[O-])c4)c(Oc4cnc5[nH]ccc5c4)c3)CC2)=C(c2ccc(Cl)cc2)C1 [Venetoclax] (first compound max 10 µM, 7x7, partner max 1 µM) | 0.164 | 0.475 | 0.0427 | 0.412 | 0.122 | 0.29 | 0.199 | 0.238 | 0.409 | 0.194 | 0.448 | 0.283 | 0.95 |  | 0.217 | 0.42 | 0.105 | 0.28 | 0.107 | 0.424
12 | CC(=O)c1c(C)c2cnc(Nc3ccc(N4CCNCC4)cn3)nc2n(C2CCCC2)c1=O [Palbociclib] + Cc1c2c(nn1C)CSCc1cc(n(C)n1)CSc1cc(c3ccccc3c1)OCCCc1c(C(=O)O)n(C)c3c-2c(Cl)ccc13 [AZD5991] (first compound max 10 µM, 7x7, partner max 1 µM) | 0.229 | 0.356 | 0.952 | 0.883 | 0.176 | 0.836 | 0.301 | 0.247 | 0.494 | 0.329 | 0.518 | 0.389 | 0.975 |  | 0.46 | 0.387 | 0.167 | 0.638 | 0.179 | 0.588
13 | CC(=O)c1c(C)c2cnc(Nc3ccc(N4CCNCC4)cn3)nc2n(C2CCCC2)c1=O [Palbociclib] + Cn1cnc2c(F)c(Nc3ccc(Br)cc3Cl)c(C(=O)NOCCO)cc21 [Selumetinib] (first compound max 10 µM, 7x7, partner max 10 µM) | 0.224 | 0.539 | 0.165 | 0.386 | 0.14 | 0.5 | 0.188 | 0.335 | 0.669 | 0.295 | 0.492 | 0.333 | 0.941 |  | 0.557 | 0.318 | 0.54 | 0.47 | 0.0628 | 0.588
